Measured values: ChEMBL document CHEMBL1201862, “PubChem BioAssay data set” (2004)
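Compound exposure: 48 hours, 5 concentrations, 96-well plates. GI50 = concentration required for 50% inhibition of growth.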 Activity calls are given as the source filed them. Cut-off read from the data, not from the text of the source: active = GI50 up to about 1.1 µM and inactive = higher.

Columns and labels:
Assay in all cases: inhibition of tumour cell growth, NCI panel, 48 h
[1] = tested on: EKVX
[2] = tested on: UACC-62
[3] = tested on: U-251
[4] = tested on: OVCAR-8
[5] = tested on: HOP-62
[6] = tested on: COLO 205
[7] = tested on: RPMI-8226
[8] = tested on: KM12
[9] = tested on: SR
[10] = tested on: SN12C
[11] = tested on: Malme-3M
[12] = tested on: A549
[13] = tested on: SK-MEL-5
[14] = tested on: SF-295
[15] = tested on: IGROV-1
[16] = tested on: NCI/ADR-RES
[17] = tested on: SF-268
[18] = tested on: SW-620
[19] = tested on: OVCAR-5
[20] = tested on: LOX IMVI

Measured: GI50

COc1ccc(N2NC(c3ccccc3)(c3ccccc3)C(C)C2=O)cc1 (stereo not given)
inactive: [1] 68.7 µM | [2] 91.2 µM | [3] 64.3 µM | [4] 79.8 µM | [5] > 100 µM | [6] 16 µM | [7] > 100 µM | [8] 33 µM | [9] 96.6 µM | [10] 82.8 µM | [11] 61.7 µM | [12] 34.4 µM | [13] 58.9 µM | [14] 36.3 µM | [15] > 100 µM | [16] 48.2 µM | [17] 88.5 µM | [18] 58.9 µM | [19] 56.2 µM | [20] 44 µM
